Measurements published in PMC9437035, “Decoding the olfactory map through targeted transcriptomics links murine olfactory receptors to glomeruli” (Nature Communications, 2022).

Tests used:
[1] = target: T1, Olfr1377 (Mus musculus, UniProt B2RQ46); assay: CRE-luciferase reporter assay in Hana3A cells; type: cell-based; design: expressed from plasmid in Hana3A cells with RTP1S and M3R
T1 sequence (B2RQ46 1-307): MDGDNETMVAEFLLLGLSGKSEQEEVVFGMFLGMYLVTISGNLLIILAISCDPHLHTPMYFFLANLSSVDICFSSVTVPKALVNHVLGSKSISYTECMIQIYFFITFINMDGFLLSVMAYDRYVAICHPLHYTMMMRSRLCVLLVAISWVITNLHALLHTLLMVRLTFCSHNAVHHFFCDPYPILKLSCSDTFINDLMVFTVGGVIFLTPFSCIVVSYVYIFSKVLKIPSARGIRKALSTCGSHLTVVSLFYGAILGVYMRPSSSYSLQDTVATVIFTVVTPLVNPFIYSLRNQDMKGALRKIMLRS

[2] = target: T1, Olfr1377; assay: in vivo two-photon GCaMP6s imaging of the receptor-tagged glomerulus; design: native receptor in mKate2-labelled olfactory sensory neurons (IRES-mKate2 after the CDS, receptor unaltered); conditions: agonist; estimated delivered odorant concentration (olfactometer), anesthetized mice
[3] = target: T1, Olfr1377; assay: as above; design: native receptor in mKate2-labelled olfactory sensory neurons (IRES-mKate2 after the CDS, receptor unaltered); conditions: agonist; inhaled odorant on the order of 10^0 nM, anesthetized mice
[4] = target: T2, Olfr881 (Mus musculus, UniProt Q8VF63); assay: in vivo two-photon GCaMP6s imaging of the receptor-tagged glomerulus; pS6-IP RNA-Seq; conditions: agonist; inhaled odorant, anesthetized mice (imaging)
T2 construct: gene Or8b35; native receptor in mKate2-labelled olfactory sensory neurons (IRES-mKate2 after the CDS, receptor unaltered)
T2 sequence (Q8VF63 1-314): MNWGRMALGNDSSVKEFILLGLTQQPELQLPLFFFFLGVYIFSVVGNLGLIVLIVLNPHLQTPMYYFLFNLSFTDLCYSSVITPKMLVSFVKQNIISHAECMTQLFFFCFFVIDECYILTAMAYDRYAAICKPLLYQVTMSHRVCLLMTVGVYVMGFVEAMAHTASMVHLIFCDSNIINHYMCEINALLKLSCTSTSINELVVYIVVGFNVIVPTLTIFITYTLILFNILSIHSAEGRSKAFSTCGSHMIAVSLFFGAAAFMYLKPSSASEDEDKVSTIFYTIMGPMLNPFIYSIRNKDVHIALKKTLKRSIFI

Row | EC50 [1] [µM] | SMILES | glomerular response to odorant [3] | further results
1 | 0.008 | COc1ccc(C(C)=O)cc1 [4-methoxyacetophenone] | – | in vivo response threshold [2]: ~ 10^−13 M
2 | 1 | CC(=O)c1ccc(C)cc1 [4-methylacetophenone] | – | in vivo two-photon GCaMP6s imaging of the receptor-tagged glomerulus; pS6-IP RNA [4]: both Olfr1377 and Olfr881 exhibited robust responses to low concentrations of 4-methylacetophenone
3 | 10.1 | CC(=O)c1ccccc1 [acetophenone] | – | –

More lines, now with the values behind:

Row | SMILES | EC50 [1] [µM] | glomerular response to odorant [3] | further results
4 | CC(=O)c1ccccc1O [2′-hydroxyacetophenone] | 300 | – | –
5 | CC(=O)C=C(C)C [4-methyl-3-penten-2-one] | – | Olfr1377 showed strong responses to p-anisaldehyde, acetophenone, and the aliphatic ketone 4-methyl-3-penten-2-one | –
6 | COc1ccc(C=O)cc1 [p-anisaldehyde] | – | Olfr1377 showed strong responses to p-anisaldehyde, acetophenone, and the aliphatic ketone 4-methyl-3-penten-2-one | –
